In patent EP3072956A1, “Selective culture medium for polymyxin-resistant, gram-negative bacteria” (priority 2015, dated 2016):

Legend:
Assay in all cases: MIC determination by broth microdilution (MHB-CA, CLSI)
Format in all cases: cell-based
A. baumannii = tested on: A. baumannii
Description: (§1) Determination of MIC values were performed by broth microdilution in Cation-Adjusted Mueller-Hinton broth (MHB-CA) according to the CLSI guidelines (Clinical and Laboratory Standards Institute). Polymyxin B and colistin (Sigma-Aldrich, Saint-Louis) were tested with or without Tween 80 over a range dilution from 0.12 to 128 µg/ml. The surfactant Tween 80, at a final concentration of 0.002%, prevents the binding of polymyxins to multi-array plastic panel. Actually, the use of Tween for determination of MIC of polymyxins is still debatable. MHB-CA broth and 5.10^5 CFU/ml of each tested strain were distributed in each well. Following the EUCAST breakpoints, strains were characterized as susceptible or resistant to polymyxins.

B. cepacia = conditions: strain Bcep
Description: as §1

C. freundii = tested on: C. freundii
Description: as §1

E. aerogenes = conditions: strain 36F8
Description: as §1

E. cloacae = tested on: E. cloacae
Description: as §1

E. coli = tested on: E. coli
Description: as §1

H. alvei = conditions: strain ER
Description: as §1

K. oxytoca = conditions: strain C24
Description: as §1

K. pneumoniae = tested on: K. pneumoniae
Description: as §1

M. morganii = conditions: strain Mmor
Description: as §1

P. mirabilis = conditions: strain Pmir
Description: as §1

P. stuartii = conditions: strain Pstu
Description: as §1

P. vulgaris = conditions: strain Pvul
Description: as §1

S. maltophilia = tested on: S. maltophilia
Description: as §1

S. marcescens = conditions: strain Smar
Description: as §1

For colistin, the MIC (A. baumannii; strain 38B9, With Tween80) was 0.25 µg/mL, the MIC (A. baumannii; strain 38B9, Without Tween80) was 0.5 µg/mL and the MIC (A. baumannii; strain Aba6, With Tween80) was 128 µg/mL. For the same substance, the MIC (A. baumannii; strain Aba6, Without Tween80) was 128 µg/mL, the MIC (A. baumannii; strain C105, With Tween80) was 0.12 µg/mL and the MIC (A. baumannii; strain C105, Without Tween80) was 0.5 µg/mL. The MIC (B. cepacia; With Tween80) was over 128 µg/mL, the MIC (B. cepacia; Without Tween80) was over 128 µg/mL and the MIC (C. freundii; strain 38B2, With Tween80) was 0.12 µg/mL. It also gave an MIC (C. freundii; strain 38B2, Without Tween80) of 0.12 µg/mL, an MIC (C. freundii; strain C136, With Tween80) of 0.12 µg/mL and an MIC (C. freundii; strain C136, Without Tween80) of 0.25 µg/mL. It also gave an MIC (E. aerogenes; With Tween80) of 0.12 µg/mL, an MIC (E. aerogenes; Without Tween80) of 0.12 µg/mL and an MIC (E. cloacae; strain 38A10, With Tween80) of 0.12 µg/mL. For the same substance, the MIC (E. cloacae; strain 38A10, Without Tween80) was 0.12 µg/mL, the MIC (E. cloacae; strain C28, With Tween80) was 32 µg/mL and the MIC (E. cloacae; strain C28, Without Tween80) was 32 µg/mL. The MIC (E. cloacae; strain C129, With Tween80) was 0.12 µg/mL, the MIC (E. cloacae; strain C129, Without Tween80) was 0.12 µg/mL and the MIC (E. cloacae; strain C144, With Tween80) was 0.12 µg/mL. The MIC (E. cloacae; strain C144, Without Tween80) was 0.12 µg/mL, the MIC (E. cloacae; strain HM, With Tween80) was over 128 µg/mL and the MIC (E. cloacae; strain HM, Without Tween80) was over 128 µg/mL. The MIC (E. coli; strain 36A6, With Tween80) was 0.12 µg/mL, the MIC (E. coli; strain 36A6, Without Tween80) was 0.12 µg/mL and the MIC (E. coli; strain 36D7, With Tween80) was 0.12 µg/mL. It also gave an MIC (E. coli; strain 36D7, Without Tween80) of 0.25 µg/mL, an MIC (E. coli; strain 38D6, With Tween80) of 0.12 µg/mL and an MIC (E. coli; strain 38D6, Without Tween80) of 0.25 µg/mL. The MIC (E. coli; strain 27563, With Tween80) was 8 µg/mL, the MIC (E. coli; strain 27563, Without Tween80) was 16 µg/mL and the MIC (E. coli; strain 27837, With Tween80) was 8 µg/mL. For the same substance, the MIC (E. coli; strain 27837, Without Tween80) was 16 µg/mL, the MIC (E. coli; strain 27850, With Tween80) was 8 µg/mL and the MIC (E. coli; strain 27850, Without Tween80) was 16 µg/mL. For the same substance, the MIC (E. coli; strain 27852, With Tween80) was 8 µg/mL, the MIC (E. coli; strain 27852, Without Tween80) was 8 µg/mL and the MIC (E. coli; strain 28509, With Tween80) was 4 µg/mL. The MIC (E. coli; strain 28509, Without Tween80) was 4 µg/mL, the MIC (E. coli; strain 30742, With Tween80) was 4 µg/mL and the MIC (E. coli; strain 30742, Without Tween80) was 8 µg/mL. The MIC (E. coli; strain ATCC 25922, With Tween80) was 0.12 µg/mL, the MIC (E. coli; strain ATCC 25922, Without Tween80) was 0.25 µg/mL and the MIC (E. coli; strain C140, With Tween80) was 0.12 µg/mL. It also gave an MIC (E. coli; strain C140, Without Tween80) of 0.12 µg/mL, an MIC (E. coli; strain Eco OmpC-OmpF-, With Tween80) of 0.12 µg/mL and an MIC (E. coli; strain Eco OmpC-OmpF-, Without Tween80) of 0.12 µg/mL. For the same substance, the MIC (H. alvei; With Tween80) was 16 µg/mL, the MIC (H. alvei; Without Tween80) was 16 µg/mL and the MIC (K. oxytoca; With Tween80) was 64 µg/mL. The MIC (K. oxytoca; Without Tween80) was 64 µg/mL, the MIC (K. pneumoniae; strain 12E2, With Tween80) was 64 µg/mL and the MIC (K. pneumoniae; strain 12E2, Without Tween80) was 64 µg/mL. For the same substance, the MIC (K. pneumoniae; strain 13G2, With Tween80) was 32 µg/mL, the MIC (K. pneumoniae; strain 13G2, Without Tween80) was 64 µg/mL and the MIC (K. pneumoniae; strain 18J1, With Tween80) was 32 µg/mL. The MIC (K. pneumoniae; strain 18J1, Without Tween80) was 32 µg/mL, the MIC (K. pneumoniae; strain 36A4, With Tween80) was 0.12 µg/mL and the MIC (K. pneumoniae; strain 36A4, Without Tween80) was 0.12 µg/mL. For the same substance, the MIC (K. pneumoniae; strain 36A5, With Tween80) was 0.12 µg/mL, the MIC (K. pneumoniae; strain 36A5, Without Tween80) was 0.12 µg/mL and the MIC (K. pneumoniae; strain 36A7, With Tween80) was 0.12 µg/mL. The MIC (K. pneumoniae; strain 36A7, Without Tween80) was 0.25 µg/mL, the MIC (K. pneumoniae; strain 38B7, With Tween80) was 0.12 µg/mL and the MIC (K. pneumoniae; strain 38B7, Without Tween80) was 0.5 µg/mL. For the same substance, the MIC (K. pneumoniae; strain 75b, With Tween80) was 128 µg/mL, the MIC (K. pneumoniae; strain 75b, Without Tween80) was 128 µg/mL and the MIC (K. pneumoniae; strain 1118, With Tween80) was 64 µg/mL. It also gave an MIC (K. pneumoniae; strain 1118, Without Tween80) of 64 µg/mL, an MIC (K. pneumoniae; strain 1515, With Tween80) of 32 µg/mL and an MIC (K. pneumoniae; strain 1515, Without Tween80) of 64 µg/mL. For the same substance, the MIC (K. pneumoniae; strain AF1b, With Tween80) was 16 µg/mL, the MIC (K. pneumoniae; strain AF1b, Without Tween80) was 16 µg/mL and the MIC (K. pneumoniae; strain BICb, With Tween80) was over 128 µg/mL. It also gave an MIC (K. pneumoniae; strain BICb, Without Tween80) of over 128 µg/mL, an MIC (K. pneumoniae; strain C1, With Tween80) of 128 µg/mL and an MIC (K. pneumoniae; strain C1, Without Tween80) of 128 µg/mL. For the same substance, the MIC (K. pneumoniae; strain C3, With Tween80) was 32 µg/mL, the MIC (K. pneumoniae; strain C3, Without Tween80) was 32 µg/mL and the MIC (K. pneumoniae; strain C7, With Tween80) was over 128 µg/mL. It also gave an MIC (K. pneumoniae; strain C7, Without Tween80) of over 128 µg/mL, an MIC (K. pneumoniae; strain C11, With Tween80) of 128 µg/mL and an MIC (K. pneumoniae; strain C11, Without Tween80) of 64 µg/mL. For the same substance, the MIC (K. pneumoniae; strain C12, With Tween80) was 64 µg/mL, the MIC (K. pneumoniae; strain C12, Without Tween80) was 64 µg/mL and the MIC (K. pneumoniae; strain C16, With Tween80) was 64 µg/mL. For the same substance, the MIC (K. pneumoniae; strain C16, Without Tween80) was 64 µg/mL, the MIC (K. pneumoniae; strain C21, With Tween80) was 128 µg/mL and the MIC (K. pneumoniae; strain C21, Without Tween80) was 128 µg/mL. For the same substance, the MIC (K. pneumoniae; strain C22, With Tween80) was 64 µg/mL, the MIC (K. pneumoniae; strain C22, Without Tween80) was 32 µg/mL and the MIC (K. pneumoniae; strain C25, With Tween80) was 32 µg/mL. The MIC (K. pneumoniae; strain C25, Without Tween80) was 64 µg/mL, the MIC (K. pneumoniae; strain C26, With Tween80) was 128 µg/mL and the MIC (K. pneumoniae; strain C26, Without Tween80) was 128 µg/mL. It also gave an MIC (K. pneumoniae; strain C27, With Tween80) of over 128 µg/mL, an MIC (K. pneumoniae; strain C27, Without Tween80) of over 128 µg/mL and an MIC (K. pneumoniae; strain C112, With Tween80) of 0.12 µg/mL. For the same substance, the MIC (K. pneumoniae; strain C112, Without Tween80) was 0.5 µg/mL, the MIC (K. pneumoniae; strain C115, With Tween80) was 0.12 µg/mL and the MIC (K. pneumoniae; strain C115, Without Tween80) was 0.12 µg/mL. It also gave an MIC (K. pneumoniae; strain C130, With Tween80) of 0.12 µg/mL, an MIC (K. pneumoniae; strain C130, Without Tween80) of 0.5 µg/mL and an MIC (K. pneumoniae; strain C132, With Tween80) of 0.12 µg/mL. For the same substance, the MIC (K. pneumoniae; strain C132, Without Tween80) was 0.12 µg/mL, the MIC (K. pneumoniae; strain Kp OmpK3 5-OmpK3 6-, With Tween80) was 0.12 µg/mL and the MIC (K. pneumoniae; strain Kp OmpK3 5-OmpK3 6-, Without Tween80) was 0.12 µg/mL. It also gave an MIC (K. pneumoniae; strain Sa, With Tween80) of over 128 µg/mL, an MIC (K. pneumoniae; strain Sa, Without Tween80) of 128 µg/mL and an MIC (K. pneumoniae; strain T1b, With Tween80) of 128 µg/mL. For the same substance, the MIC (K. pneumoniae; strain T1b, Without Tween80) was 128 µg/mL, the MIC (K. pneumoniae; strain T4, With Tween80) was 64 µg/mL and the MIC (K. pneumoniae; strain T4, Without Tween80) was 64 µg/mL. The MIC (K. pneumoniae; strain T5, With Tween80) was 64 µg/mL, the MIC (K. pneumoniae; strain T5, Without Tween80) was 32 µg/mL and the MIC (M. morganii; With Tween80) was over 128 µg/mL. It also gave an MIC (M. morganii; Without Tween80) of over 128 µg/mL, an MIC (P. mirabilis; With Tween80) of over 128 µg/mL and an MIC (P. mirabilis; Without Tween80) of over 128 µg/mL. The MIC (P. stuartii; With Tween80) was over 128 µg/mL, the MIC (P. stuartii; Without Tween80) was over 128 µg/mL and the MIC (P. vulgaris; With Tween80) was over 128 µg/mL. It also gave an MIC (P. vulgaris; Without Tween80) of over 128 µg/mL, an MIC (S. maltophilia; strain Sm2, With Tween80) of over 128 µg/mL and an MIC (S. maltophilia; strain Sm2, Without Tween80) of over 128 µg/mL. For the same substance, the MIC (S. maltophilia; strain SmA51, With Tween80) was 16 µg/mL, the MIC (S. maltophilia; strain SmA51, Without Tween80) was 32 µg/mL and the MIC (S. marcescens; With Tween80) was over 128 µg/mL. It also gave an MIC (S. marcescens; Without Tween80) of over 128 µg/mL.
